IC50 data for one compound are collected here from article PMC4858736, “Inhibition of cyclic diadenylate cyclase, DisA, by polyphenols” (Scientific Reports, 2016).

This experiment concerns the target T1, DisA (Bacillus subtilis, UniProt P37573).
T1 sequence (P37573 1-360): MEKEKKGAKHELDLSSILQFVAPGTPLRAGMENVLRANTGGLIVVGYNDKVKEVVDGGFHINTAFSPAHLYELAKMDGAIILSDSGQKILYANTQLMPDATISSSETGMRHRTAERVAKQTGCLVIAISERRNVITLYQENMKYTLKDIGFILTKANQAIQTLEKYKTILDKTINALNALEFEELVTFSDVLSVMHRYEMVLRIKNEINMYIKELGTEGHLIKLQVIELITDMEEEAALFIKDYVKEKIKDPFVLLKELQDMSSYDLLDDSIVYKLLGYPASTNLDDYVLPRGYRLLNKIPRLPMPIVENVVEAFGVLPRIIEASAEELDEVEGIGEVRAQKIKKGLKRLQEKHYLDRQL
The experiment in a line: […]-ATP TLC diadenylate cyclase assay with purified DisA; HPLC and coralyne assays. It is filed as biochemical.

The IC50 is the concentration that inhibits the measured activity by half. With `O=C(O[C@@H]1Cc2c(O)cc(O)cc2O[C@@H]1c1cc(O)c(O)c2c(=O)c(O)cc([C@H]3Oc4cc(O)cc(O)c4C[C@H]3O)cc12)c1cc(O)c(O)c(O)c1` [TF2B, theaflavin-3′-gallate], the concentration for half-maximal inhibition (IC50) worked out at 23.6 µM.
